Measured values reported in paper PMC3538687, “Detection of Cyclic Diguanylate G-Octaplex Assembly and Interaction with Proteins” (PLoS ONE, 2013).

Assays:
[1] = molecular target: T1, HIV-1 reverse transcriptase (HIV RT) (HIV-1 M:B_HXB2R, UniProt P04585); experiment: DRaCALA direct binding, protein titration; settings: labelled compound (32P), 500 nM; K+ buffer pH 7.9, room temperature; concentration given as cdiGMP monomers; octaplex only, cdiGMP M/D does not bind; primer-template site
T1 construct: gene gag-pol; purchased from Worthington; mature RT cut from Gag-Pol polyprotein; with p51 RT

[2] = molecular target: T1, HIV-1 reverse transcriptase (HIV RT); experiment: primer extension, […] min; format: biochemical; settings: 80 mM KCl, 6 mM MgCl2, 100 µM dNTPs, pH 8; G8 prepared in K+; concentration given as cdiGMP monomers; octaplex only, M/D shows no inhibition

Substance cdiGMP G8 has a Kd [1] of 0.7 ± 0.1 µM and an IC50 [2] of 28 ± 7 µM.
